Usually EC50 stands for the midpoint of the concentration-response curve.

The assay deals with THP-1 viability, CellTiter-Glo luminescence, 72 h. In words: PubChem AID 2252.

On to `CCN(CC)c1cc(C)c2cc(NC(=O)c3ccccc3F)ccc2n1`, for which the EC50 is 8.98 µM.

As for `COC(=O)C1=C(C)N(Cc2ccccc2)C(=NCc2cccc(C(F)(F)F)c2)N[C@H]1c1cccc(F)c1`, the concentration for a half-maximal effect (EC50) is 5.3 µM.

With `Oc1ccc(/C=N/Nc2nccnc2Cl)c(O)c1`, the EC50 is 1.63 µM.

Take `NC1=NC[C@H](Cc2ccc(O)cc2)N1CCc1cccc2ccccc12`: the 50% effective concentration (EC50) is 32.7 µM.

Regarding `CN(C)CCCn1c(SCC(=O)N2c3ccccc3Sc3ccccc32)nc2ccccc2c1=O`, the concentration for a half-maximal effect (EC50) was 14.2 µM.

Consider `c1ccc2c(c1)C(=NC1CCCCC1)NC2=NC1CCCCC1`, for which the concentration giving a half-maximal response (EC50) was 4.25 µM.

With `O=C(Nc1ccc(Cc2ccncc2)cc1)c1ccc([N+](=O)[O-])o1`, the EC50 is 4.02 µM.

Consider `NC1=NC[C@H](Cc2ccc(O)cc2)N1CCCCC1CCCCC1`, for which the half-maximal effective concentration (EC50) is 1.73 µM.

For the compound `C/C(=N\NC(=O)c1ccccc1O)c1cccs1`, the concentration giving a half-maximal response (EC50) is 22.7 µM.

Take `Clc1ccc2c(c1)C(N1CCNCC1)Cc1ccccc1S2` (centres undefined): the concentration for a half-maximal effect (EC50) is 7.4 µM.

As to `O=C(Nc1nnc(C2COc3ccccc3O2)o1)c1ccc(F)cc1` (centres undefined), the EC50 was 16.8 µM.

For `CC1(C)Oc2ccc3ccc(=O)oc3c2/C(=C/NCCN/C=C2\C(=O)C(C)(C)Oc3ccc4ccc(=O)oc4c32)C1=O`, the half-maximal effective concentration (EC50) was below 0.1 µM.

Regarding `Cc1ccc(C)c(NC(=O)c2ccccc2O)c1`, the EC50 was 35.1 µM.

As to `N#CC1=C2N=C(N)c3ccccc3N2C2=C(C(=O)CCC2)C1c1cccc(Cl)c1` (centres undefined), the EC50 was 27.1 µM.

With `CCN1/C(=C/c2cc[n+](C)cc2)C=Cc2cc(C)ccc21`, the EC50 is 6.78 µM.

On to `O=C(C[n+]1cn(C(F)F)c2ccccc21)c1ccc(Br)cc1`, for which the EC50 was 35.8 µM.

In the case of `c1ccc2cc3c(NCCN4CCOCC4)ccnc3cc2c1`, the concentration giving a half-maximal response (EC50) is 3.7 µM.

For `Cc1ccc(OCC(O)Cn2c(=N)n(CCN3CCCCC3)c3ccccc32)cc1` (centres undefined), the concentration giving a half-maximal response (EC50) was 5.35 µM.

For `CCN1CCN(CCNC(=O)c2ccc(/C=C3/Sc4ccccc4N(Cc4cccc(C)c4)C3=O)cc2)CC1`, the EC50 was 8.21 µM.

For `Cc1nn(Cc2ccccc2Cl)c2sc(C(=O)Nc3ccccc3N3CCOCC3)cc12`, the EC50 was 20.4 µM.

Take `Nc1ncn([C@@H]2O[C@H](CO)[C@@H](O)[C@H]2O)c(=O)n1`: the EC50 was 19.7 µM.

For the compound `OC(CN1CCCCC1)Cn1c2ccccc2c2cc(Br)ccc21` (centres undefined), the 50% effective concentration (EC50) is 17.5 µM.

Take `CC(=O)NC(c1cccc([N+](=O)[O-])c1)c1ccc2cccnc2c1O` (centres undefined): the EC50 was 0.47 µM.

As for `CCCCCCCCCCOC(=O)Cn1c(COc2ccc(C)cc2)[n+](C)c2ccccc21`, the EC50 was 2.36 µM.

As to `CC(C)(C)c1ccc(OCCNC(=S)Nc2ccccc2)cc1`, the EC50 is 16 µM.

In the case of `Cc1cccc(NC2=NC3(CCCCC3)N=C(N)N2)c1`, the EC50 was 34.2 µM.

For `COc1ccc(CNc2ncnc3c2[nH]c2ccccc23)cc1`, the EC50 was 39.3 µM.

With `Cc1cc(C)c(OCCCCNCc2ccccc2)c(Cl)c1`, the EC50 is 12.2 µM.

As for `OCCNCc1cc(Br)ccc1OCc1ccc(Cl)cc1`, the EC50 was 15.9 µM.

On to `COc1ccc(C[C@H]2CN3C(=NC[C@H]3Cc3ccccc3)N2CCNC(=O)c2ccc(C)c(Br)c2)cc1`, for which the EC50 was 7.83 µM.

In the case of `NC1=NC[C@H](CC2CCCCC2)N1CCc1cc(C(F)(F)F)cc(C(F)(F)F)c1`, the EC50 is 6.33 µM.

Turning to `CCCCCCCCCC[N+](C)(C)CC/C=C1/c2ccccc2Sc2ccc(Cl)cc21`, the concentration giving a half-maximal response (EC50) is 1.99 µM.

As for `Cc1c(C(=O)Nc2ccncc2)sc2nc(-c3ccc(F)cc3)cn12`, the EC50 is 19.6 µM.

As to `Nc1c2ccccc2nc2ccccc12`, the EC50 is 4.83 µM.

`CCc1nn(CCCN2CCN(c3cccc(Cl)c3)CC2)c(=O)n1CCOc1ccccc1`: the EC50 is 42.4 µM.

`CCN1CCN(Cc2ccc(NC(=O)c3ccc(C)c(NC(=O)c4c[nH]c5cc(C(F)(F)F)ccc5c4=O)c3)cc2C(F)(F)F)CC1`: the EC50 was 2.04 µM.

On to `Oc1ccc(C=Nc2cccc3ncccc23)c(O)c1`, for which the EC50 was 3.33 µM.

For `Oc1cccc(Nc2nc(NCC3CCCO3)c3ccccc3n2)c1` (centres undefined), the concentration giving a half-maximal response (EC50) is 1.36 µM.

On to `CCOC(=O)c1c(N)sc(C(=O)Nc2ccc3c(c2)OCO3)c1C`, for which the EC50 is 42.7 µM.
